# Experimental data from patent US20210038587A1, “METHODS AND COMPOSITIONS FOR TREATING NON-ERK MAPK PATHWAY INHIBITOR-RESISTANT CANCERS” (BIOMED VALLEY DISCOVERIES, INC., priority 2013, published 2021).
# Key:
# CDK6/cycinD3 = CDK6/cycinD3 (Homo sapiens, UniProt Q00534); assay: Kinase counter-screen, Ki; type: biochemical; settings: apparent Ki
# Text: The ATP concentrations were approximately equal to the Km in all assays.
# [1] = tested on: patient-derived xenograft (AT052C); assay: Patient-derived xenograft from vemurafenib-refractory BRAFV600E melanoma; type: in vivo, mice; settings: 100 mg/kg BID, 28 days
# Text: Tumor fragments were harvested from host animals and implanted into immune-deficient mice.
# [2] = tested on: PMA stimulated ERK activity (RSK-1 phosphorylation); assay: Phase I study: pharmacodynamic target inhibition (pRSK in patient whole blood); type: in vivo; settings: Homo sapiens, 360 h, prior to Day 15 dosing
# Colo205 xenografts = assay: BVD-523 activity in Colo205 xenografts
# CDK6/cycinD3, sequence (Q00534 whole entry, species assumed): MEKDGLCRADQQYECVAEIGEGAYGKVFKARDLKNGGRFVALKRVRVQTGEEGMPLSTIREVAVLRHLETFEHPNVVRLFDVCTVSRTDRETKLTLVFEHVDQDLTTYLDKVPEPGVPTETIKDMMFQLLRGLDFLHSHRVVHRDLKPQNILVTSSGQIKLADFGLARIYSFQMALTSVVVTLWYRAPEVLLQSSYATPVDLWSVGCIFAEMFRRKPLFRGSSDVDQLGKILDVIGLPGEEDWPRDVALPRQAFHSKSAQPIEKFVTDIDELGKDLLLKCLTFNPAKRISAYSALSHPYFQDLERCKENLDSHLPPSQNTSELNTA
# CDK6/cycinD3, sequence (P30281 whole entry partner, species assumed): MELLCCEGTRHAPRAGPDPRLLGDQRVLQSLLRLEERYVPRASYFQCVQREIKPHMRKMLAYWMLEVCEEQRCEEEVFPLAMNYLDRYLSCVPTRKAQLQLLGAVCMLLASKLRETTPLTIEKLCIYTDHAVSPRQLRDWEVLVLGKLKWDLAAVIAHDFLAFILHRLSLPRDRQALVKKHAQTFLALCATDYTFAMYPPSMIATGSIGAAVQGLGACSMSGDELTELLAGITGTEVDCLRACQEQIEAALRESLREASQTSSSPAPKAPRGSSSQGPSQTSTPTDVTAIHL
structure (smiles),measurement,setting,value
CC(C)Nc1cc(-c2c[nH]c(C(=O)N[C@H](CO)c3cccc(Cl)c3)c2)c(Cl)cn1 [BVD-523],Ki,CDK6/cycinD3,90 nM
same,TGI,[1],78%
same,inhibition at 10 mg,[2]; 10 mg BID,0%
same,inhibition at 900 mg,[2]; 900 mg BID,93 ± 8%
same,T/C,Colo205 xenografts; 25 mg/kg BID,25.2%
same,mean tumor regression T/Ti,Colo205 xenografts; 50 mg/kg BID,−48.2%
same,mean tumor regression T/Ti,Colo205 xenografts; 75 mg/kg BID,−77.2%
same,mean tumor regression T/Ti,Colo205 xenografts; 100 mg/kg BID,−92.3%
